The values that follow come from PubChem BioAssay (NCI).

“And” between values parts separate entries of the source, which are not always exact repeats. Identical values can stand only once.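 Protocol summary: plate cells (96-well), add compound at 5 concentrations, incubate 48 h, interpolate endpoints linearly. The concentration for 50% growth inhibition is given as GI50. At the TGI there is no net growth.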 Starred links: 1 amine or outer side, 2 acyl side, 3 side chain; linkers in the order of their positions; H or OH if unused. Positions of bridges follow the written chain, without caps; N, C: chain ends. Non-standard residues stand in square brackets, D forms with d. Residues, ends and D or L forms follow the SMILES beside them. Chains are numbered I, II in the order given. Actinocin(9to1) = Cc1c2oc3c(C)ccc(C(=O)[*:1])c3nc-2c(C(=O)[*:2])c(N)c1=O; NMeY = CN[CH](Cc1ccc(O)cc1)C(=O)O; Sar = CNCC(=O)O

Test systems include A498 renal; ACHN renal; CCRF-CEM leukemia; HCT-15 colon; MDA-N; NCI-H460 lung; PC-3 prostate; SF-295 CNS; SN12C renal; SNB-19 CNS; UO-31 renal.
What all share (assay): growth of human tumour cells (NCI), 48 h

In the case of `CCCNC(=O)NNC(=O)c1c[nH]c2nc(C)ccc2c1=O`, the TGI with A498 renal, in the assay on ACHN renal, in the assay on CCRF-CEM leukemia, in the assay with HCT-15 colon, in the assay with MDA-N and in the assay with NCI-H460 lung was > 100 µM in each case. Moreover, the TGI in the assay on PC-3 prostate, in the assay with SF-295 CNS, with SN12C renal, in the assay on SNB-19 CNS and with UO-31 renal was > 100 µM in each case.

`COC(=O)C1=C(OC(=O)/C(=C/c2ccc(Cl)cc2)c2ccc(Cl)cc2)C(C(=O)OC)[C@@]2(O)[C@@H](C(=O)OC)[C@H](C)C[C@@H]1[C@@H]2C(=O)OC` (stereo partly drawn): the TGI in the assay with A498 renal, in the assay with ACHN renal, in the assay with CCRF-CEM leukemia, with HCT-15 colon, in the assay with MDA-N and with NCI-H460 lung was > 100 µM in each case. For the same compound, the TGI with PC-3 prostate, with SF-295 CNS, in the assay with SN12C renal, in the assay on SNB-19 CNS and in the assay on UO-31 renal was > 100 µM in each case.

In the case of `O=C1/C(=C/c2ccc(Br)s2)NC(=S)N1c1ccccc1`, the TGI in the assay with A498 renal, in the assay with ACHN renal, with CCRF-CEM leukemia, with HCT-15 colon, in the assay with MDA-N and in the assay on NCI-H460 lung was > 100 µM each time. Moreover, the TGI in the assay with PC-3 prostate, in the assay on SF-295 CNS, in the assay with SN12C renal, in the assay with SNB-19 CNS and with UO-31 renal was > 100 µM throughout.

As to `CC(=O)OC(OC(C)=O)c1ccc2ccc3cccc4ccc1c2c34`, the TGI was 3.74 µM in the assay on A498 renal; 65.8 µM in the assay with ACHN renal; > 100 µM in the assay on CCRF-CEM leukemia; > 100 µM with HCT-15 colon; 36.9 µM in the assay with MDA-N; 39.6 µM in the assay on NCI-H460 lung. Further, the TGI in the assay with PC-3 prostate is 65.6 µM; in the assay on SF-295 CNS, 37.5 µM; with SN12C renal it was > 100 µM; in the assay on SNB-19 CNS, 98.7 µM; in the assay on UO-31 renal it was 44.6 µM.

Regarding `COC[C@@H](N=CC(C)(C)C)C(C)C`, the TGI in the assay on A498 renal, in the assay on ACHN renal, in the assay with CCRF-CEM leukemia, in the assay with HCT-15 colon, in the assay on MDA-N and in the assay on NCI-H460 lung was > 100 µM each time. Further, the TGI in the assay on PC-3 prostate, in the assay on SF-295 CNS, with SN12C renal, in the assay on SNB-19 CNS and with UO-31 renal was > 100 µM each time.

For `BrC1=C(Br)C2(SCCS2)[C@H]2C[C@@H]1c1ccccc12`, the TGI was > 100 µM in the assay with A498 renal; > 100 µM with ACHN renal; > 100 µM with CCRF-CEM leukemia; > 100 µM in the assay on HCT-15 colon; > 26.2 µM with MDA-N; > 100 µM in the assay with NCI-H460 lung. Further, the TGI in the assay with PC-3 prostate is > 100 µM; in the assay on SF-295 CNS, > 100 µM; in the assay on SN12C renal, > 100 µM; with SNB-19 CNS it was > 100 µM; in the assay with UO-31 renal, > 62.3 µM.

`CC(C)NC(=O)OCc1c(COC(=O)NC(C)C)c(-c2cc[n+](COC(=O)C3CC3)cc2)n2c1CCC2`: the TGI with A498 renal, in the assay on ACHN renal, in the assay with CCRF-CEM leukemia, in the assay on HCT-15 colon, with MDA-N and with NCI-H460 lung was > 100 µM throughout. Moreover, the TGI in the assay on PC-3 prostate, in the assay on SF-295 CNS, with SN12C renal, in the assay on SNB-19 CNS and with UO-31 renal was > 100 µM in each case.

As for `Cc1c2oc3c(C)ccc(C(=O)NC4C(=O)NC(C(C)C)C(=O)N5CCCC5C(=O)N(C)CC(=O)N(C)C(Cc5ccc(O)cc5)C(=O)OC4C)c3nc-2c(C(=O)NC2C(=O)NC(C(C)C)C(=O)N3CCCC3C(=O)N(C)CC(=O)N(C)C(Cc3ccc(O)cc3)C(=O)OC2C)c(N)c1=O` (stereo not drawn) (I: TVP[Sar][NMeY] / II: TVP[Sar][NMeY]; ester I:1-I:C, II:1-II:C; linker I:N-II:N via Actinocin(9to1); configuration not given here), the TGI with A498 renal is 0.664 µM and 0.11 µM; with ACHN renal, > 1 µM; in the assay with HCT-15 colon it was > 1 µM; with MDA-N it was > 0.48 µM and 0.259 µM; with NCI-H460 lung, > 1 µM; in the assay on PC-3 prostate it was > 1 µM. Moreover, the TGI with SF-295 CNS was > 1 µM; with SN12C renal it was > 1 µM; in the assay with SNB-19 CNS, > 1 µM; in the assay on UO-31 renal it was > 1 µM and 0.459 µM. Also, the GI50 with CCRF-CEM leukemia was 0.00256 µM and 0.00073 µM; in the assay on HCT-15 colon, 0.988 µM and 0.116 µM; in the assay on MDA-N, 0.0273 µM and 0.00511 µM; with NCI-H460 lung, 0.0056 µM and 0.000964 µM; with PC-3 prostate, 0.0407 µM and 0.0115 µM; in the assay with SF-295 CNS, 0.0438 µM and 0.0157 µM. Besides, the GI50 in the assay on SNB-19 CNS was 0.00797 µM and 0.00332 µM; with UO-31 renal it was > 0.726 µM and 0.0874 µM.

Take `COc1cc(Nc2nc3ccccc3nc2C(=O)O)cc(OC)c1OC`: the TGI with A498 renal was 82.5 µM; in the assay on ACHN renal, > 100 µM; in the assay on CCRF-CEM leukemia, > 100 µM; in the assay on HCT-15 colon, > 100 µM; in the assay on MDA-N it was > 100 µM; with NCI-H460 lung, > 100 µM. Further, the TGI in the assay on PC-3 prostate, in the assay with SF-295 CNS, with SN12C renal, in the assay on SNB-19 CNS and with UO-31 renal was > 100 µM each time.

For the compound `Nc1ccc2c(c1)C(=O)N1CCC[C@H]1C(=O)N2`, the TGI in the assay on A498 renal was > 100 µM; in the assay on ACHN renal, > 100 µM; in the assay on CCRF-CEM leukemia, 20.5 µM; with HCT-15 colon, > 100 µM; with MDA-N it was > 100 µM; in the assay on NCI-H460 lung, > 100 µM. Moreover, the TGI with PC-3 prostate, with SF-295 CNS, in the assay on SN12C renal, with SNB-19 CNS and in the assay with UO-31 renal was > 100 µM each time.

As for `O=c1[nH]nnc2c1sc1ncccc12`, the TGI in the assay on A498 renal, in the assay on ACHN renal, with CCRF-CEM leukemia, in the assay with HCT-15 colon, in the assay with MDA-N and with NCI-H460 lung was > 100 µM each time. In addition, the TGI in the assay with PC-3 prostate, with SF-295 CNS, with SN12C renal, with SNB-19 CNS and in the assay on UO-31 renal was > 100 µM in each case.
